The target of test [1] is T1, interleukin-1 receptor-associated kinase 4 (IRAK4) (Mus musculus, UniProt Q8R4K2).
T1 construct: kinase domain, aa 153–459, N-terminal His6-tagged
T1 sequence (Q8R4K2 153-459): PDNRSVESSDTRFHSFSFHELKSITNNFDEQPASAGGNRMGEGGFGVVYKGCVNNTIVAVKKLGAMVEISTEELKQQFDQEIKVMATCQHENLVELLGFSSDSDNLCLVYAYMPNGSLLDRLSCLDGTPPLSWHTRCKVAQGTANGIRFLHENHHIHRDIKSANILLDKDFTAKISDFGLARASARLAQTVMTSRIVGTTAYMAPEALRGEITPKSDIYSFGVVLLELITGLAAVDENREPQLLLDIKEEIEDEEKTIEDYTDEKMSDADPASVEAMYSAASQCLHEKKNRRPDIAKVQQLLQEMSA
Put plainly: IMAP fluorescence polarization kinase assay, […] ATP. Type of test: biochemical. In general terms: In fluorescence polarisation assays a small probe gives low polarisation when free and higher when bound to something large.

The target in test [2] is T2, interleukin-1 receptor-associated kinase 4 (IRAK4) (Homo sapiens, UniProt Q9NWZ3).
T2 construct: kinase domain, aa 153–460, N-terminal His6-tagged
T2 sequence (Q9NWZ3 153-460): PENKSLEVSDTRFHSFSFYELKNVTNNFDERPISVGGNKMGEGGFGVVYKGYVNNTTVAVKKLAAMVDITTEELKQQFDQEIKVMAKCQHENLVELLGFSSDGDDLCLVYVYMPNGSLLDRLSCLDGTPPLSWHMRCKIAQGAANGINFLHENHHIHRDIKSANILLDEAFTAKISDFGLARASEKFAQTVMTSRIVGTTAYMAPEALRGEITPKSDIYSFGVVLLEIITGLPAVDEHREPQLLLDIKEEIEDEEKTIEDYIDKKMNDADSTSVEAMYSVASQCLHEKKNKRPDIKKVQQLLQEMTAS
Put plainly: IMAP fluorescence polarization kinase assay, […] ATP. The class given is biochemical.

A word on the IC50: it is the concentration that inhibits the measured activity by half. Low values mean greater potency in that assay, high ones weaker potency in that assay.

Consider BI1543673, for which the IC50 in test [1] and in test [2] was around 2 nM throughout.
